These results are taken from US3984482A, “2-(Dihalobenzyl)-6-nitro-4-t-butylphenol and preparation thereof” (Institut de Recherches Chimiques et Biologiques Appliquees …, priority 1967, dated 1976).

A short description of data set [1]: Acute toxicity per os in mice (LD 50, maximum tolerated dose). Type of data set: in vivo. To be noted: mouse, po; for LD50: read-out: Approximate LD 50; for MTD: read-out: Approximate maximum tolerated dose. The method, then: The acute toxicity per os was determined in mice by the following method. Different doses of each compound were each tested on 10 mice, both male and female, weighing on average from 18 to 22 g; each dose was administered as a suspension in 10% gum arabic or olive oil and each mouse was given a uniform dose of 0.4 ml per 20 g weight of mouse with the aid of a probang.
The mice were starved for two hours before the experiment and the temperatures and behaviour of the animals were observed before the test and 11/2 and 3 hours after ingestion of the compound. After this time they were replaced in their cages and observed for several days.
The number of dead was counted daily and from this was deduced the lethal dose 50 (LD 50), the maxmum tolerated dose (MTD) and the minimum mortal dose MMD).

Another data set deals with London staphylococcus. Nature of the data set: Bacteriostatic activity in vitro by progressive dilution in culture broth, London staphylococcus. Type of data set: cell-based, Gram-positive London staphylococcus. To be noted: conditions under which the compounds of Formula I were tested. How it is done:
The bacteriostatic activities in vitro of the compounds of Formula I were determined by comparing them with known products, particularly of analogous series. The activity was determined with respect to the specific Gram-positive London staphylococcus as a reference strain for all the compounds.
The test was carried out in a culture broth of the following formula: […]
Indole-free bacteriological peptone
Sodium chloride 5% by weight
The method used involved progressive dilution of the principle tested. The dilutions varied by thousandths between concentrations of one thousandth and one tenth of a thousandth, and by 10 thousandths for concentrations between one tenth of a thousandth and 1/100 of a thousandth, and by hundred thousandths for concentrations between 1/100 of a thousandth and one millionth. If the product was found active at a dilution of one millionth, a new range was made from millionth to millionth to beyond one millionth.
Two dilution series were made independently and the results of the two series must be identical. The readings were carried out after 24 hours.
The figure given in the table is that of the maximum dilution at which the growth of London staphylococcus is inhibited.

SMILES strings stand for the structures. Read-outs that look alike come from different tables or passages of the source. A value given as a limit tells only on which side of the number the result lay.

Regarding `CCC(C)c1ccc(O)c(Cc2ccc(Cl)cc2)c1` (stereo not shown) [Example 1, 2-(4'-chlorobenzyl)-4-sec-butylphenol], in data set [1] (solvent 10% gum), the LD50 stood at 1000 mg/kg and the MTD was 500 mg/kg. Regarding `CC(C)c1ccc(O)c(Cc2ccc(Cl)cc2)c1` [Example 2, 2-(4'-chlorobenzyl)-4-isopropylphenol], in data set [1] (solvent olive oil), the LD50 is 1700 mg/kg and the MTD stood at 500 mg/kg. Take `CC(C)(C)c1ccc(O)c(Cc2ccc(Cl)cc2)c1` [Example 3, 2-(4'-chlorobenzyl)-4-t-butylphenol]: the LD50 in data set [1] (solvent 10% gum) was determined as 1900 mg/kg. Turning to `CC(C)c1ccc(O)c(Cc2ccc(Cl)cc2Cl)c1` [Example 4, 2-(2',4'-dichlorobenzyl)-4-isopropylphenol], in data set [1] (solvent olive oil), the LD50 worked out at 1700 mg/kg and the MTD came to 500 mg/kg.

Consider `CC(C)(C)c1ccc(O)c(Cc2ccc(Cl)cc2Cl)c1` [Example 5, 2-(2',4'-dichlorobenzyl)-4-t-butylphenol], for which, in data set [1] (solvent olive oil), the LD50 stood at 1700 mg/kg and the MTD amounted to 500 mg/kg.

Regarding `CC(C)(C)c1ccc(O)c(Cc2ccc(Cl)c(Cl)c2)c1` [Example 7, 2-(3',4'-dichlorobenzyl)-4-t-butylphenol], in data set [1] (solvent olive oil), the LD50 worked out at 1500 mg/kg and the MTD amounted to 500 mg/kg. Taken in the same sequence, the figures for `CCC(C)c1ccc(O)c(Cc2ccc(Cl)c(Cl)c2)c1` (stereo not shown) [Example 8, 2-(3',4'-dichlorobenzyl)-4-s-butylphenol] were 2400 mg/kg and 1000 mg/kg. Taken in the same sequence, the figures for `CC(C)(C)c1cc(Cl)c(O)c(Cc2ccc(Cl)c(Cl)c2)c1` [Example 9, 2-(3',4'-dichlorobenzyl)-6-chloro-4-t-butylphenol] were over 2500 mg/kg and 500 mg/kg. As to `CC(C)(C)c1cc(Cl)c(O)c(Cc2ccc(Cl)cc2Cl)c1` [Example 10, 2-(2',4'-dichlorobenzyl)-6-chloro-4-t-butylphenol], in data set [1] (solvent olive oil), the LD50 turned out to be 1500 mg/kg and the MTD is 500 mg/kg. Turning to `Cc1ccc(O)cc1` [Para-cresol], the inhibiting dilution in the data set with London staphylococcus was 1/4000. `Oc1ccccc1` [Phenol]: in the data set with London staphylococcus, the inhibiting dilution is listed as 1/1000.
